Data from patent US20060073574A1 (priority 2001, published 2006).

What was measured:
Saccharomyces cerevisiae = assay: antifungal activity test against Saccharomyces cerevisiae; details: tested against Saccharomyces cerevisiae
[1] = test system: human immunodeficiency virus (HIV); details: cited from earlier work; for inhibition of HIV infection / HIV-1 replication: cultured cells
Leishmania = details: cited from earlier work
BSE or scrapie agents = details: cited from earlier work; for survival times: hamsters and mice infected intracerebrally with BSE or scrapie agents; for delaying the onset of symptoms associated with scrapie and BSE: transmissible spongiform encephalopathies scrapie and BSE
[2] = amphotericin B: intravenous or intrathecal routes; cited from earlier work
[3] = compared with amphotericin B; cited from earlier work
[4] = derivative of amphotericin B; cited from earlier work

| SMILES | antifungal activity (Saccharomyces cerevisiae) | inhibition of HIV infection / HIV-1 replication ([1]; in vitro) | activity against Leishmania (Leishmania) | survival times (BSE or scrapie agents) | delaying the onset of symptoms associated with scrapie and BSE (BSE or scrapie agents) | toxicity [2] | T-cell activation via the CD3/TcR ([1]; HIV CD4+ cells) | cytotoxicity ([1]; in vitro, all cell types) | water solubility [3] | activity retained [4] |
| --- | --- | --- | --- | --- | --- | --- | --- | --- | --- | --- |
| C[C@@H]1[C@H](O)[C@@H](C)/C=C/C=C/C=C/C=C/C=C/C=C/C=C/[C@H](O[C@@H]2O[C@@H](C)[C@@H](O)[C@H](N)[C@@H]2O)C[C@@H]2O[C@](O)(C[C@@H](O)C[C@@H](O)CCC[C@@H](O)C[C@@H](O)CC(=O)O[C@H]1C)C[C@H](O)[C@H]2C(=O)O [8-deoxyamphotericin B] | as great as that of amphotericin B |  |  |  |  |  |  |  |  |  |
| C[C@@H]1[C@H](O)[C@@H](C)/C=C/C=C/C=C/C=C/C=C/C=C/C=C/[C@H](O[C@@H]2O[C@H](C)[C@@H](O)[C@H](N)[C@@H]2O)C[C@@H]2O[C@](O)(C[C@@H](O)C[C@@H](O)[C@H](O)CC[C@@H](O)C[C@@H](O)CC(=O)O[C@H]1C)C[C@H](O)[C@H]2C(=O)O [Amphotericin B] |  | inhibits infection of cultured cells | active against Leishmania | prolonged the survival times | showed activity in delaying the onset of symptoms | consistently associated with a number of toxic side-effects |  |  |  |  |
| CNC[C@H](O)[C@@H](O)[C@H](O)[C@H](O)CO.C[C@@H]1[C@H](O)[C@@H](C)/C=C/C=C/C=C/C=C/C=C/C=C/C=C/[C@H](O[C@@H]2O[C@H](C)[C@@H](O)[C@H](NCC(=O)[C@@H](O)[C@@H]3OC(c4ccccc4)OC[C@H]3O)[C@@H]2O)C[C@@H]2O[C@](O)(C[C@@H](O)C[C@@H](O)[C@H](O)CC[C@@H](O)C[C@@H](O)CC(=O)O[C@H]1C)C[C@H](O)[C@H]2C(=O)O (stereo partly shown) [MS-8209] |  | inhibit HIV-1 replication in vitro in all cell types |  | prolonged the survival times | showed activity in delaying the onset of symptoms |  | restore T-cell activation | without cytotoxicity | more water soluble | retains activity |
